In patent US11253554B2, “Bacterial profile to detect fungal taxa abundance in the gut” (Virginia Commonwealth University, priority 2016, dated 2022):

Key:
[1] = Pre-PPI/post-PPI longitudinal study, clinical course; format: in vivo, human; details: patients with cirrhosis; before 8.1±2.7, p=0.41
Method: The impact of PPI on fungal parameters were analyzed from a prior trial in which 40 mg of omeprazole was administered daily for 14 days in compensated outpatients with cirrhosis and healthy controls, (Bajaj J S, et al. Am J Physiol Gastrointest Liver Physiol 2014 307:[…]-[…]).

[2] = all subjects, 40 mg daily for 14 days, as reported in prior trial; cited from earlier work
[3] = test system: bacterial taxa (stool microbiota); test: Pre-PPI/post-PPI longitudinal study, stool 16S rRNA bacterial community analysis; format: in vivo, human; details: after 14 days of 40 mg omeprazole daily
Method: (§1) The impact of PPI on fungal parameters were analyzed from a prior trial in which 40 mg of omeprazole was administered daily for 14 days in compensated outpatients with cirrhosis and healthy controls, (Bajaj J S, et al. Am J Physiol Gastrointest Liver Physiol 2014 307:G951-G957).
(§2) For all these studies, Shannon diversity indices for both bacterial and fungal taxa as well as LEFSe comparisons (Segata N, et al. Genome Biol 2011 12:R60) at baseline and the end of study were performed and compared.
(§3) Microbial DNA were isolated from stool samples as previously described (Gillevet P, et al. Chem Biodivers 2010 7:1065-75). […] Amplicons for 96 samples were then sequenced together to generate >20,000×400 base reads per sample.
The Microbiome Analysis Center's Portal was used to organize raw data, track clinical metadata, and track analysis between the groups at baseline and/if they develop infections and are resampled. […] The taxonomic identity of reference sequences were determined using the RDP11 Classifier (Wang Q et al. Appl Environ Microbiol 2007 73:5261-7) and QIIME Pipeline. […] Changes in abundance of individual bacterial and fungal taxa were also analyzed using traditional univariate statistical methods. […]

[4] = test system: fungal taxa (stool mycobiome); test: Pre-PPI/post-PPI longitudinal study, stool ITS1 fungal community analysis; format: in vivo, human; details: after 14 days of 40 mg omeprazole daily
Method: as §1, §2
Similarly, the ITS1 regions of the fungal 18S ribosomal RNA (rRNA) gene were sequenced on a PGM Ion Torrent Next-generation sequencer using Multitag fusion primers (ITS1F: 5′-[…]-3′ (SEQ ID NO:3); ITS2: 5′-[…]-3′ (SEQ ID NO:4)). Amplicons for 96 samples were sequenced together to generate >10,000×400 base reads per sample. The mycobiome is generally less diverse than the microbiome and thus required fewer reads to interrogate this community (Ghannoum M A, et al. PLoS pathogens 2010 6:e1000713). Greater than 1000 reads for bacteria and greater than 100 reads for fungi were used given the relatively lower abundance of fungal taxa as the lowest number chosen to be acceptable. […] A cutoff of 100 reads per sample was used as that was clearly above the negative control and is the break point in FIG. 6. […]

[5] = test system: fungal taxa (stool mycobiome); test: Cross-sectional study of outpatients with cirrhosis, fungal Shannon diversity; format: in vivo, human; details: outpatients with cirrhosis on rifaximin without SBP prophylaxis; vs SBPP 0.83±0.60
Method: (§4) Healthy controls that were age-matched were enrolled with two sets of patients with cirrhosis, outpatients and inpatients. Healthy controls were outpatients without any chronic diseases or medications. Patients with cirrhosis were included who were diagnosed using liver biopsy, evidence of frank decompensation or radiological features of cirrhosis who were between 21 and 75 years. Patients who were unable to give consent or provide stool within 48 hours of admission, with alcohol misuse, alcoholic hepatitis, on antifungal medications and with gastrointestinal bleeding episodes within 6 weeks were excluded. Also excluded were those undergoing HCV eradication or those on probiotics within the last 3 months. […]
Similarly, the ITS1 regions of the fungal 18S ribosomal RNA (rRNA) gene were sequenced on a PGM Ion Torrent Next-generation sequencer using Multitag fusion primers (ITS1F: 5′-[…]-3′ (SEQ ID NO:3); ITS2: 5′-[…]-3′ (SEQ ID NO:4)). Amplicons for 96 samples were sequenced together to generate >10,000×400 base reads per sample. The mycobiome is generally less diverse than the microbiome and thus required fewer reads to interrogate this community (Ghannoum M A, et al. PLoS pathogens 2010 6:e1000713). Greater than 1000 reads for bacteria and greater than 100 reads for fungi were used given the relatively lower abundance of fungal taxa as the lowest number chosen to be acceptable. […]

[6] = test system: bacterial taxa (stool microbiota); test: Cross-sectional study of outpatients with cirrhosis, bacterial Shannon diversity; format: in vivo, human; details: outpatients with cirrhosis on rifaximin without SBP prophylaxis; vs SBPP 1.3±0.5
Method: as §4, §3
The Microbiome Analysis Center's Portal was used to organize raw data, track clinical metadata, and track analysis between the groups at baseline and/if they develop infections and are resampled. […] The taxonomic identity of reference sequences were determined using the RDP11 Classifier (Wang Q et al. Appl Environ Microbiol 2007 73:5261-7) and QIIME Pipeline. […]

Row | Compound | MELD score after therapy [1] | tolerability [2] | bacterial diversity (Shannon index) post ([3]; healthy controls, pre 1.88±0.16, p=0.004) | bacterial diversity (Shannon index) post ([3]; patients with cirrhosis, pre 1.89±0.25, p=0.05) | fungal diversity (Shannon index) post ([4]; healthy controls, pre 1.92±0.48, p=0.46) | fungal diversity (Shannon index) post ([4]; patients with cirrhosis, pre 1.64±0.34, p=0.39) | fungal diversity (Shannon index) [5] | bacterial diversity (Shannon index) [6]
1 | COc1ccc2[nH]c([S+]([O-])Cc3ncc(C)c(OC)c3C)nc2c1 (centres unmarked) [omeprazole] | 7.9±3.5 | able to tolerate | 1.63±0.22 | 1.54±0.34 | 1.73±0.61 | 1.45±0.38 |  | 
2 | CO[C@H]1/C=C/O[C@@]2(C)Oc3c(C)c(O)c4c(O)c(c5c(nc6cc(C)ccn65)c4c3C2=O)NC(=O)/C(C)=C\C=C\[C@H](C)[C@H](O)[C@@H](C)[C@@H](O)[C@@H](C)[C@H](OC(C)=O)[C@@H]1C [rifaximin] |  |  |  |  |  |  | 0.77±0.77 | 1.32±0.51
